Assay [1] relates to EA.hy926 endothelial cells. Description: Conversion of BH4 derivatives into BH4 by endothelial cells (intracellular biopterin content by HPLC). In kind it is cell-based. The following applies: 100 μM, FIG. 1. On the procedure:
Endothelial cells (HUVEC and ERhy926) were cultivated in the appropriate culture medium and treated with sepiapterin and BH4 (100 μM each) respectively, for the indicated time periods. After excess wash steps using PBS the cells were lysed and the biopterin content was analysed by reversed phase HPLC with fluorescence detection (excitation: 350 nm, emission: 450 nm) after iodine reduction and semi-purification on Dowex beads as described in detail in Hesslinger et al., J. Biol. Chem. 273, 21616-21622, 1998.

Assay [2] has as its target T1, human iNOS (Homo sapiens, UniProt P35228). As to the kind of experiment: Promotion of NO synthesis in DAHP-pretreated HEK293iNOS cells (Griess assay). It is filed as cell-based. The note with it: HEK293iNOS cells pretreated with 10 mM DAHP, increasing concentrations, concentration-dependent, FIG. 2. On the procedure:
HEK293 cells stably transfected with human iNOS under the transcriptional control of a PonA-inducible promoter were treated with 10 mM DAHP (diaminohydroxypyridin), an inhibitor of GTP cyclohydrolase (Xie et al., J. Biol. Chem. 273, 21091-21098, 1998), to block endogenous production of tetrahydrobiopterin. After stimulating iNOS expression with […] PonA for 24 h and concomitant treatment with 10 mM DAHP increasing concentrations of BH4 or sepiapterin were added and the NO production was measured using the Griess assay to analyse the stable NO products nitrite and nitrate. Nitrate was reduced to nitrite by nitrate reductase and its absorption was determined at 544 nm in a Wallac spectrophotometer.
On the technique in general: Nitrite, measured by Griess reagent, commonly stands in for NO production.

Assay [3] concerns the target T1, human iNOS. As to the kind of experiment: Superoxide production from recombinant BH4-free and arginine-free human iNOS (ESR, CPH spin trap). The note with it: incubation with arginine alone, FIG. 3b. Further details: made in house; host or cells: E. coli. It is filed as biochemical. On the procedure: Recombinant human iNOS was overexpressed in E. coli and purified using an ADP sepharose column and subsequently a Superdex column to yield BH4free and arginine-free iNOS. 1 μg of human iNOS was incubated together with 200 μM NADPH and 1 mM CPH. After incubation at 37° C. for 60 min the superoxide produced was measured as stable CPH radical in a Bruker e-scan device via electron spin resonance spectroscopy (ESR).

Turning to `C[C@H](O)C(=O)C1=Nc2c(nc(N)[nH]c2=O)NC1` [sepiapterin], the “conversion of exogenous compound into intracellular biopterin” value in assay [1] is “effectively converted into intracellular biopterin within a few minutes”. Besides, the “NO synthesis from iNOS (nitrite/nitrate, Griess assay)” value in assay [2] is listed as “promoted NO synthesis”.

In the case of `N=C(N)NCCC[C@H](N)C(=O)O` [arginine], the “reduction of superoxide production” value in assay [3] is given as 50%.

For the origin of these results see patent US20070049599A1, “Use of bh4 for the treatment of respiratory diseases” (Altana Pharma AG, priority 2003, published 2007).
